One experiment deals with 2C9-FGloop K206E (Homo sapiens, UniProt P11712, C216Y/I215V/I222L/I223L/K206E/P221A/S220P). The experiment in a line: biochemical.
Another experiment deals with 2C9trunc (Homo sapiens, UniProt P11712). Nature of the experiment: Inhibition assay with substrates/inhibitors of 2C9.
For another experiment, the target named is 2C9 (Homo sapiens, UniProt P11712). The conditions noted are these: cited from earlier work; for Ki: read-out: 2C9 Published data, Ki, published.
Another experiment deals with 2C19 (Homo sapiens, UniProt P33261). The conditions noted are these: protein 2C19 (published), Table 17; cited from earlier work.
2C19, sequence (P33261 whole entry): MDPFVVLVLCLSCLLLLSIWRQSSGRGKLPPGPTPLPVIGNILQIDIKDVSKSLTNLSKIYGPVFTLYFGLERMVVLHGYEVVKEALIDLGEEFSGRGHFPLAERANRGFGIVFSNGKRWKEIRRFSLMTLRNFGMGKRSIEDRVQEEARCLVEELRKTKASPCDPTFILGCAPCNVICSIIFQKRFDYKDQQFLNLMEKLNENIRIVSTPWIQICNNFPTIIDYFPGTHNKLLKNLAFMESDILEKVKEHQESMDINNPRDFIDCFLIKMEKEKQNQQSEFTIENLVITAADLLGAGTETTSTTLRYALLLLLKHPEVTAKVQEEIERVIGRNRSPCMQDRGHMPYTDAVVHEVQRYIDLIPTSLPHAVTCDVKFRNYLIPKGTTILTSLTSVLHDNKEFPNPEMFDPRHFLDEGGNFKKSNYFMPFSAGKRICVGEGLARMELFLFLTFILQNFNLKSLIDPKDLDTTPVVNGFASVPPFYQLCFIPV
The next experiment has as its target T1, 1600 (Homo sapiens, UniProt P11712, C216Y/E288V/F295L/I215V/I222L/I223L/I331V/I99H/K206E/L362I/N289I/P221A/S220P/S286N/V292A).
T1 construct: is residue 30 (all numbering is in relation to the full length protein), and the last residue is residue 490; made in house; host or cells: E. coli XL1 Blue
The experiment in a line: Inhibition assay on 2C9-2C19 chimera (Table 17). Type of experiment: biochemical. The following applies: chimera 1600, Table 17.

A further experiment concerns the target T2, 1632 (Homo sapiens, UniProt P11712, C216Y/E288V/F295L/I215V/I222L/I223L/I99H/K206E/N289I/P221A/S220P/S286N/V292A).
T2 construct: is residue 30 (all numbering is in relation to the full length protein), and the last residue is residue 490; made in house; host or cells: E. coli XL1 Blue
The experiment in a line: Inhibition assay on 2C9-2C19 chimera (Table 17). It counts as biochemical. The following applies: chimera 1632, Table 17.

In the next experiment the target is T3, 1661 (Homo sapiens, UniProt P11712, C216Y/I215V/I222L/I223L/I99H/K206E/N289I/P221A/S220P/S286N).
T3 construct: is residue 30 (all numbering is in relation to the full length protein), and the last residue is residue 490; made in house; host or cells: E. coli XL1 Blue
T3 sequence (P11712 30-490 I99H/K206E/I215V/C216Y/S220P/P221A/I222L/I223L/S286N/N289I): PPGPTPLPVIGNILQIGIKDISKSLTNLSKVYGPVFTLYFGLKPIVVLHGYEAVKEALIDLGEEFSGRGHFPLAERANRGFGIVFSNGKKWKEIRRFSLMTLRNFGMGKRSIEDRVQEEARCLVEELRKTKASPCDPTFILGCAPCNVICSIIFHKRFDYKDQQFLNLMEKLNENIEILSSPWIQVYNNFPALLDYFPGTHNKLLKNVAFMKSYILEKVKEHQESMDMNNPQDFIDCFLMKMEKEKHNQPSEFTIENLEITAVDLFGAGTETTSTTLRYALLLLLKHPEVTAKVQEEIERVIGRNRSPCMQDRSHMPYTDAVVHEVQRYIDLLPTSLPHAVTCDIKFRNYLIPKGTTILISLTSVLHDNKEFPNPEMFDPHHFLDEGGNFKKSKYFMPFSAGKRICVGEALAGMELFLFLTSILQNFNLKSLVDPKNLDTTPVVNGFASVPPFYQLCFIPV
Nature of the experiment: Inhibition assay on 2C9-2C19 chimera (Table 17). Type of experiment: biochemical. The following applies: chimera 1661, Table 17.

A further experiment has as its target T4, 1155 (Homo sapiens, UniProt P11712, C216Y/I215V/I222L/I223L/K206E/P221A/S220P).
T4 construct: is residue 30 (all numbering is in relation to the full length protein), and the last residue is residue 490; made in house; host or cells: E. coli XL1 Blue
Nature of the experiment: Inhibition assay with substrates/inhibitors of 2C19 and 2C9 (Table 17). The following applies: protein 1155, Table 17. Type of experiment: biochemical.

2C9, sequence (P11712 whole entry): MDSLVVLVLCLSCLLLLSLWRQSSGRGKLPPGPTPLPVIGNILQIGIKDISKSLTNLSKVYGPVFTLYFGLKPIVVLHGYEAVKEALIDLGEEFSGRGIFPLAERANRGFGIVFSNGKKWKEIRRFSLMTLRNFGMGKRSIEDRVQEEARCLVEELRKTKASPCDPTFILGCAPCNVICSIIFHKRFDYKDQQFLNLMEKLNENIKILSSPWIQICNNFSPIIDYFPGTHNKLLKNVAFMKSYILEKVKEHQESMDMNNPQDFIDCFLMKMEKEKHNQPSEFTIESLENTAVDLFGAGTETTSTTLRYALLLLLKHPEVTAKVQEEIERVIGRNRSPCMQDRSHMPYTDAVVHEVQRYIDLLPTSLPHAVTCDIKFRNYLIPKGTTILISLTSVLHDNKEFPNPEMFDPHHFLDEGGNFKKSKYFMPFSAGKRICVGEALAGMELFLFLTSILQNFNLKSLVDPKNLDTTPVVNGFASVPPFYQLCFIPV
2C9trunc, sequence (P11712 30-490): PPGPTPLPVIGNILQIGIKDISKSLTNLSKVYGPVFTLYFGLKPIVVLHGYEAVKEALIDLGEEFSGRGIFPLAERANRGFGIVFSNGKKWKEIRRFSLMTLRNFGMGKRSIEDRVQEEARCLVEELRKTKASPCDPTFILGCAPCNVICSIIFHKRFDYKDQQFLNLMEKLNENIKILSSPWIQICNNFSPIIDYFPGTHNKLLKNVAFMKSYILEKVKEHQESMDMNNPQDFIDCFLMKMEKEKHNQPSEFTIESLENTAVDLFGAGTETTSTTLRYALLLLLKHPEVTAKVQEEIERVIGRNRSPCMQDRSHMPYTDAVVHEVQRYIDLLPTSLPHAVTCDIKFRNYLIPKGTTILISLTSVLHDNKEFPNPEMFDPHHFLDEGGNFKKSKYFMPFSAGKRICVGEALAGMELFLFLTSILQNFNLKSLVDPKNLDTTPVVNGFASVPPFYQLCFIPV
2C9-FGloop K206E, sequence (P11712 30-490 K206E/I215V/C216Y/S220P/P221A/I222L/I223L): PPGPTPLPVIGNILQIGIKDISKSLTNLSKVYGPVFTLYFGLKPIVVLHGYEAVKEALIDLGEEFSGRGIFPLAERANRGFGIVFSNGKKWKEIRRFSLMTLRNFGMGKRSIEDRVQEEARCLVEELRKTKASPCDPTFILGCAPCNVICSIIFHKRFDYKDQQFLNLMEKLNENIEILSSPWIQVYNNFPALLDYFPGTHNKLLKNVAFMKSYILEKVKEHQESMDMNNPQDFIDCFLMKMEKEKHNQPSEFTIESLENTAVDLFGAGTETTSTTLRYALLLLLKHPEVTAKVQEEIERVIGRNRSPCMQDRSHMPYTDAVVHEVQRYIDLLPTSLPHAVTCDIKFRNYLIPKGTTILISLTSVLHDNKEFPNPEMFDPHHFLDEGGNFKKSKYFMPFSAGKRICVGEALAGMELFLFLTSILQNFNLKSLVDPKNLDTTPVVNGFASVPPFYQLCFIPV
T2 sequence (P11712 30-490 I99H/K206E/I215V/C216Y/S220P/P221A/I222L/I223L/S286N/E288V/N289I/V292A/F295L): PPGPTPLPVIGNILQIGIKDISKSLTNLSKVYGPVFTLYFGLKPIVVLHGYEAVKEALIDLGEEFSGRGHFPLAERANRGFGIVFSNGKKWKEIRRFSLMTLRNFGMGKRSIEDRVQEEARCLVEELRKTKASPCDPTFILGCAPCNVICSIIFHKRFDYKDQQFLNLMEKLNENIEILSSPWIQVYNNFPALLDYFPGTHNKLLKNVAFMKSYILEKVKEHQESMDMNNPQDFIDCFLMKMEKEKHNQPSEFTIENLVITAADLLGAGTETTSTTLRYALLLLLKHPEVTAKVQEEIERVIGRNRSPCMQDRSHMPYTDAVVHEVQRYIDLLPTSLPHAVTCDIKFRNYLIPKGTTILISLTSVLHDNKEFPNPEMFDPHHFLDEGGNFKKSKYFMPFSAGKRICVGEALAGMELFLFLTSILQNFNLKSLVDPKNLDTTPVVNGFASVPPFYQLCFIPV
T4 sequence (P11712 30-490 K206E/I215V/C216Y/S220P/P221A/I222L/I223L): as the sequence (P11712 30-490 K206E/I215V/C216Y/S220P/P221A/I222L/I223L) above
T1 sequence (P11712 30-490 I99H/K206E/I215V/C216Y/S220P/P221A/I222L/I223L/S286N/E288V/N289I/V292A/F295L/I331V/L362I): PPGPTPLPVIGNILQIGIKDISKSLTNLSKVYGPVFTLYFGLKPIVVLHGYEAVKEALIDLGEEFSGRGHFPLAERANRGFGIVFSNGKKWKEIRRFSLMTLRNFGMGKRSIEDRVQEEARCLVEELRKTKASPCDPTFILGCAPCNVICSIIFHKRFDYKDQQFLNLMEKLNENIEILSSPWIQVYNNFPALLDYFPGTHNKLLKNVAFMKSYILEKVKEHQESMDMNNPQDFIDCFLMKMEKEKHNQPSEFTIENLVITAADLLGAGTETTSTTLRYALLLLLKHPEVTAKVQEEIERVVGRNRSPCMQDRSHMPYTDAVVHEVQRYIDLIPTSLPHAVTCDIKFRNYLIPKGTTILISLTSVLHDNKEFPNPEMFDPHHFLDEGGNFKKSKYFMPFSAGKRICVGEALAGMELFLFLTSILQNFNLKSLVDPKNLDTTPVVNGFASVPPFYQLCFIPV

With `CC(C)(c1ccc(O)cc1)c1ccc(O)cc1` [Bisphenol A], at 2C9-FGloop K206E, 7800 nM corresponded to half-maximal inhibition (IC50) and the affinity, expressed as Ki, was 3300 nM. On 2C9trunc, this compound had an IC50 of 4800 nM and a Ki of 2900 nM. Moreover, at 2C9, the Km was 4 µM.

As to `O=C(O)Cc1ccccc1Nc1c(Cl)cccc1Cl` [Diclofenac], the Ki at 2C19 is 231000 nM.

Regarding `CNCCC(Oc1ccc(C(F)(F)F)cc1)c1ccccc1` (stereo not shown) [Fluoxetine], the IC50 was found to be 2100 nM against 2C9-FGloop K206E and 1500 nM against 2C9trunc. Also, the figures for the Ki on 2C9-FGloop K206E, at 2C9trunc and at 2C9 were 4100 nM, 1500 nM and 13000 nM, respectively.

With `COCCCC/C(=N\OCCN)c1ccc(C(F)(F)F)cc1` [Fluvoxamine], the IC50 on 2C9-FGloop K206E amounted to 400 nM; against 2C9trunc, 600 nM. The Ki is 850 nM on 2C9-FGloop K206E; less than 1000 nM at 1600; 1600 nM on 1632; 500 nM on 1661; 400 nM on 1155; 700 nM at 2C9trunc. For the same compound, on 2C9, the Ki was 2000 to 5000 nM.

In the case of `CN1C(C(=O)Nc2ccccn2)=C(O)c2ccccc2S1(=O)=O` [Piroxicam], the Ki on 2C19 was 133000 nM; at 1600, greater than 100000 nM; on 1632 it was greater than 100000 nM; on 1661 it was greater than 100000 nM; at 1155 it was 30000 nM.

The values are drawn from patent US20040053383A1, “Crystals of cytochrome P450 2C9, structures thereof and their use” (ASTEX TECHNOLOGY LTD., priority 2001, published 2004).
